{"source": "patent US20260035452A1", "about": "(THE UNIVERSITY OF BIRMINGHAM, priority 2022, published 2026)", "key": {"neutrophils": {"tested_on": "neutrophils", "assay": "Transwell chemotaxis assay", "assay_type": "cell-based, human", "procedure": "The cells migration after IL-17 (10-500 ng/ml), FM-0410 (10-500 ng/ml) or N-Formylmethionine-leucyl-phenylalanine (fmlp; 10^−6 M) treatment was quantified using CountBright™ Absolute Counting Beads. Data were presented as means±S.D. of n=3 healthy donors. Statistical analysis was conducted by one-way ANOVA followed by Bonferroni's for multiple comparisons. ^#P≤0.05, ^##P≤0.01, ^###P≤0.001, ^####P≤0.0001 vs Ctrl group; ^+P≤0.05 vs IL-17. Neutrophil isolation: Blood was taken according to local research ethics committee approval (QMERC2014/61). Informed consent was provided according to the Declaration of Helsinki. All blood samples were collected on the day of experiments from healthy donors and immediately used. Each condition has 3 biological replicates (3 different donors). Neutrophils were isolated using a double density histopaque gradient and hypotonic lysis as described previously. Transwell chemotaxis assay: Chemotaxis was assessed using a transwell assay. […] After 2 hours at 37° C., neutrophils were collected from the bottom wells and quantified by flow cytometry using CountBright™ Absolute Counting Beads (Thermofisher, Rugby, UK) as previously described."}, "dorsal air pouch of mice": {"tested_on": "dorsal air pouch of mice", "assay": "In vivo air pouch model", "conditions": "1 μg/mice into air pouch, 24 h", "procedure": "FIG. 3: Mice were treated with IL-17 vehicle (Ctrl), IL-17 (1 μg/mice) alone (IL-17) or peptide (FM-0410) (1 μg/mice) and thereafter total cell number from pouches inflammatory exudates was evaluated at 24 h. Data were expressed as millions of cells for pouch and presented as means±S.D. of n=7 mice per group. Statistical analysis was conducted by one-way ANOVA followed by Bonferroni's for multiple comparisons. ^##P≤0.01, ^###P≤0.005 vs Ctrl group; *P≤0.05 vs IL-17 group.\nFIG. 4: Inflammatory supernatants obtained from the pouch cavities were assayed using a Proteome Profiler Cytokine Array for Ctrl, IL-17 and FM-0410 experimental group. Densitometric analysis is presented as heatmap. Data (expressed as INT/mm2) are presented as means±S.D. of positive spots of three independent experiments run each with n=7 mice per group.\nFIG. 5: Mice were treated with IL-17 vehicle (Ctrl), IL-17 (1 μg/mice), or peptide (FM-0410) (1 μg/mice) and inflammatory fluids were assayed by Elisa for IL-6. Data were expressed as pg/ml and presented as means±S.D. of n=7 mice per group. Statistical analysis was conducted by one-way ANOVA followed by Bonferroni's for multiple comparisons. ^##P≤0.01 vs CTRL group. […]\nSpecifically, dorsal air pouches were prepared by injection of 2.5 ml of air on day 0 and day 3 as previously described (Maione et al., 2009). […] Inflammatory exudates were collected and measured to evaluate the level of inflammatory cyto-chemokines. Cell number was determined by TC20 automated cell counter (Bio-Rad, Milan, Italy) using Bio-Rad's TC20 automated cell counter uses disposable slides, TC20 trypan blue dye (0.4% trypan blue dye w/v in 0.81% sodium chloride and 0.06% potassium phosphate dibasic solution) and a CCD camera to count cells based on the analyses of capture images (Maione et al., 2018).\nMethods: The levels of IL-6 in the cellular and air pouch inflammatory supernatants at 24 h were measured using commercially available enzyme-linked immunosorbent assay kit (ELISA kit, R&D System, Milan, Italy) according to the manufacturer instructions. […]"}}, "note": "No end group written: not given here."}
{"substance": "Ac-LEKILVSVGATAVTPIVHHVAC [FM-0410]", "values": [{"measurement": "chemotactic activity compared to positive control fmlp (10^−6 M)", "setting": "neutrophils; 500 ng/ml", "result": "almost similar to positive control fmlp"}, {"measurement": "chemotactic effect on neutrophils", "setting": "neutrophils; 10-500 ng/ml, vs Control group", "result": "concentration-dependent chemotactic effect"}, {"measurement": "cyto-chemokines profile of pouch fluid (Proteome Profiler Cytokine Array)", "setting": "dorsal air pouch of mice", "result": "selective upregulation in a range of mediators"}, {"measurement": "level of IL-6 in pouch fluids", "setting": "dorsal air pouch of mice", "result": "increased level of IL-6 compared to control group"}, {"measurement": "number of inflammatory leukocytes (total cell number from pouch exudates)", "setting": "dorsal air pouch of mice", "result": "marked increase in inflammatory infiltrates compared to control but also to IL-17-treated mice"}]}
